Where only a bound is given, the exact number is not on record here.

One data set concerns SAS cells. Briefly: SAS CTG proliferation assay (120 h) (HNSCC, wt amplified). The data set is classed as cell-based. In outline: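 SAS cells plated at 300 per well in DMEM:F12 with 10% FCS and left overnight, then given compounds acoustically. After 120 h exposure, viability read by CellTiter-Glo as percent of DMSO control. IC50 from four-parameter non-linear regression.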

A short description of data set [1]: Metabolic (microsomal) stability assay, human liver microsomes (HLM). It is filed as in vitro ADME. Conditions: predicted clearance as percent of liver blood flow, 1 μM. In outline:
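LC-MS/MS tracked parent disappearance at 0, 5, 15, 30 and 60 min in NADPH-initiated incubations with 1 mg/mL human microsomal protein and 1 μM compound at 37°C, pH 7.5. First-order fits gave intrinsic clearance, which was scaled up and reported as % QH. NADPH-free controls were also run.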

Data set [2] concerns KRAS G12V-dependent Ba/F3 cells. Briefly: Ba/F3 proliferation assay, KRAS G12V.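 Also: proliferation IC50 in KRAS G12V-dependent Ba/F3 cells read by AlamarBlue.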 The data set is classed as cell-based. Conditions: Mus musculus, BaF3, 72 h, AlamarBlue. The method, boiled down: (§1)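 Ba/F3 cells retrovirally transduced with KRAS G12 mutants, puromycin-selected and grown without IL-3, so proliferation depends on the mutant KRAS. Compounds tested in technical duplicates; viability read by AlamarBlue fluorescence, with curve fitting for potency.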
On the technique in general: Alamar Blue is a resazurin reagent that responds to reducing activity.

The test system of the next data set is NCI-H358 cells. The experiment in a line: NCI-H358 CTG proliferation assay (120 h) (NSCLC, G12C). The data set is classed as cell-based, human. Conditions: Homo sapiens, assay 2, CTG, read-out: H358 (assay 2) IC50. In outline:
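NCI-H358 cells (KRAS G12C) were seeded at 2000/well (assay 1) or 200/well (assay 2) in RPMI-1640 + 10% FCS and dosed with a logarithmic series, DMSO-normalized. After 120 h, viability was read by CellTiter-Glo luminescence as percent of DMSO control, with a T0 read at dosing. IC50 came from a four-parameter fit.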

In data set [3] the test system is KRAS G12C-dependent Ba/F3 cells. Briefly: Ba/F3 proliferation assay, KRAS G12C. The data set is classed as cell-based. Conditions: Mus musculus, BaF3, 72 h, AlamarBlue. The method, boiled down:
as §1

A short description of data set [4]: Plasma protein binding assay (PPB), equilibrium dialysis, 10% FCS in PBS. It is filed as in vitro ADME. As to conditions: bovine, read-out: PPB 10% FCS (% fu). The method, boiled down: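 Equilibrium dialysis (5-10 kg/mol cut-off membrane) of 1-10 μmol/L test compound in 10% FCS/PBS against PBS with or without dextran, 3-5 h at 37° C. Compound in each chamber quantified by LC-MS after protein precipitation; fu calculated from Cserum and Cbuffer.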
(In equilibrium dialysis only unbound substance equilibrates across the membrane.)

As usually defined, the IC50 is the concentration that gives 50% inhibition. On to `Cc1ccc(-c2cc(O[C@@H](C)[C@@H]3CCCN3C)nc(-c3onc4c3CCC[C@@]43CCCc4sc(N)c(C#N)c43)n2)cn1` [I-28], for which the IC50 with SAS cells is 934 nM; in data set [2] it was 41 nM; in the data set on NCI-H358 cells, 240 nM; in data set [3], 67 nM. Moreover, the “HLM QH” value in data set [1] is under 24%. Further, in data set [4], the fraction unbound turned out to be 0.3.
Consider `Cc1nc(-c2cc(O[C@@H](C)[C@@H]3CCCN3C)nc(-c3onc4c3CCC[C@@]43CCCc4sc(N)c(C#N)c43)n2)cs1` [I-24], for which the IC50 in the data set on SAS cells was determined as 77 nM; in data set [2], 5 nM; in the data set with NCI-H358 cells, 163 nM; in data set [3] it was 9 nM. Further, the “HLM QH” value in data set [1] is under 24%. Further, the fraction unbound in data set [4] was determined as 0.19.
For `C[C@H](Oc1cc(-c2ccn([C@H]3CCCOC3)n2)nc(-c2noc3c2CCC[C@@]32CCCc3sc(N)c(C#N)c32)n1)[C@@H]1CCCN1C` [II-42], the IC50 in the data set on SAS cells worked out at 264 nM; in data set [2], 5 nM; in the data set on NCI-H358 cells, 136 nM; in data set [3], 34 nM. Moreover, in data set [1], the “HLM QH” value was under 24%. For the same compound, the fraction unbound in data set [4] amounted to 0.1.
Regarding `C[C@H](Oc1cc(N2CCC(N(C)C)CC2)nc(-c2noc3c2CCC[C@@]32CCCc3sc(N)c(C#N)c32)n1)[C@@H]1CCCN1C` [II-48], the IC50 was determined as 3880 nM in the data set with SAS cells, 581 nM in data set [2], 2160 nM in the data set with NCI-H358 cells and 724 nM in data set [3]. Moreover, the “HLM QH” value in data set [1] was under 24%. Further, the fraction unbound in data set [4] amounted to 0.62.
With `C[C@H](Oc1cc(N2CCN(C)C3(COC3)C2)nc(-c2onc3c2CCC[C@@]32CCCc3sc(N)c(C#N)c32)n1)[C@@H]1C[C@@H](F)CN1C` [I-37], the IC50 with SAS cells amounted to 412 nM; in data set [2], 1340 nM; with NCI-H358 cells it was 3890 nM; in data set [3], 1180 nM. Besides, the “HLM QH” value in data set [1] is recorded as 51%. Moreover, the fraction unbound in data set [4] came to 0.26.
Take `C[C@H](Oc1cc(-n2ccc(C(=O)NC3(C)COC3)n2)nc(-c2noc3c2CCC[C@@]32CCCc3sc(N)c(C#N)c32)n1)[C@@H]1CCCN1C` [II-26]: the IC50 was 5 nM with SAS cells, 3 nM in data set [2], 4 nM in the data set with NCI-H358 cells and 5 nM in data set [3]. Besides, in data set [1], the “HLM QH” value is reported as under 24%. For the same compound, the fraction unbound in data set [4] came to 0.24.
For the compound `COCCNC(=O)c1ccn(-c2cc(O[C@@H](C)[C@@H]3CCCN3C)nc(-c3onc4c3CCC[C@@]43CCCc4sc(N)c(C#N)c43)n2)n1` [I-58], the IC50 in the data set on SAS cells stood at 45 nM; in data set [2], 6 nM; in the data set with NCI-H358 cells, 5 nM; in data set [3] it was 4 nM. Moreover, the “HLM QH” value in data set [1] is on record as 34%. Further, the fraction unbound in data set [4] is 0.28.
Turning to `C[C@H](NC(=O)c1ccn(-c2cc(O[C@@H](C)[C@@H]3CCCN3C)nc(-c3onc4c3CCC[C@@]43CCCc4sc(N)c(C#N)c43)n2)n1)c1ccccn1` [I-59], the IC50 stood at 15 nM in the data set with SAS cells, 1 nM in data set [2], 2 nM in the data set on NCI-H358 cells and 2 nM in data set [3]. Further, the “HLM QH” value in data set [1] was under 24%. Further, in data set [4], the fraction unbound amounted to 0.04.
Turning to `C[C@H](Oc1cc(Cl)nc(-c2onc3c2CCC[C@@]32CCCc3sc(N)c(C#N)c32)n1)[C@@H]1CCCN1C` [I-1], the IC50 in the data set with SAS cells came out at 2880 nM; in data set [2], 43 nM; with NCI-H358 cells, 577 nM; in data set [3], 77 nM. In data set [1], the “HLM QH” value was 79%. Further, the fraction unbound in data set [4] came out at 0.53.
Consider `CO[C@H]1CCN(C)[C@@H]1[C@H](C)Oc1cc(-n2ccc(C(=O)N[C@H]3CCOC3)n2)nc(-c2onc3c2CCC[C@@]32CCCc3sc(N)c(C#N)c32)n1` [I-54], for which the IC50 came to 17 nM in the data set with SAS cells, 1 nM in data set [2], 4 nM in the data set with NCI-H358 cells and 1 nM in data set [3]. The “HLM QH” value in data set [1] is recorded as 52%. Further, in data set [4], the fraction unbound was 0.09.
On to `C[C@H](Oc1cc(N2C[C@H](C)NC3(CC3)C2)nc(-c2noc3c2CCC[C@@]32CCCc3sc(N)c(C#N)c32)n1)[C@@H]1C[C@@H](F)CN1C` [II-18], for which the IC50 came out at 293 nM in the data set on SAS cells, 438 nM in data set [2], 160 nM with NCI-H358 cells and 429 nM in data set [3]. The “HLM QH” value in data set [1] is 58%. For the same compound, the fraction unbound in data set [4] amounted to 0.11.
